Reference: PMC8621172, “Manipulating Estrogenic/Anti-Estrogenic Activity of Triphenylethylenes towards Development of Novel Anti-Neoplastic SERMs” (International Journal of Molecular Sciences, 2021)

Assays:
[1] = system: MCF-7 cells; assay: NCI growth inhibition on MCF-7 (single dose and five-dose, SRB); assay type: cell-based, human; conditions: for Growth Inhibition on MCF-7 (%) / inhibition at 10 µM: 10 µM; for inhibition at 10 µM / GI50: Homo sapiens, MCF7; for GI50: MCF-7, five-dose assay, 48 h
Description: Compounds were submitted to the Developmental Therapeutics Program (DTP) of the National Cancer Institute (NCI). The program uses a panel of 60 human tumor cell lines representing nine tissue types, including leukemia, non-small cell lung cancer (NSCLC), melanoma, colon cancer, ovarian cancer, CNS cancer, renal cancer, prostate cancer, and breast cancer, to screen for potential new anti-cancer agents. […] Primary screening of synthesized compounds was performed by testing a single high dose of 10 µM in the full NCI-60 panel. The percent growth of treated cells relative to the no-drug control and relative to the time zero number of cells was measured, and a mean graph was provided. The percentage inhibition was then calculated by subtracting the values obtained from 100.
All compounds were subjected to the NCI in vitro disease-oriented human cells screening panel assay. The human tumor cell lines of the cancer-screening panel are grown in RPMI 1640 medium containing 5% fetal bovine serum and 2 mM L-glutamine. For a typical screening experiment, cells are inoculated into 96-well microtiter plates in 100 μL at plating densities ranging from 5000 to 40,000 cells/well depending on the doubling time of individual cell lines. After cell inoculation, the microtiter plates are incubated at 37 °C, 5% CO2, 95% air, and 100% relative humidity for 24 h prior to the addition of experimental drugs. After 24 h, two plates of each cell line are fixed in situ with TCA to represent a measurement of the cell population for each cell line at the time of drug addition. Experimental drugs are solubilized in dimethyl sulfoxide at 400-fold the desired final maximum test concentration and stored frozen prior to use. At the time of drug addition, an aliquot of frozen concentrate is thawed and diluted to twice the desired final maximum test concentration with complete medium containing 50 μg/mL gentamicin. Additional four, 10-fold, or ½ log serial dilutions are made to provide a total of five drug concentrations plus control. Aliquots of 100 μL of these different drug dilutions are added to the appropriate microtiter wells already containing 100 μL of medium, resulting in the required final drug concentrations. Following drug addition, the plates are incubated for an additional 48 h at 37 °C, 5% CO2, 95% air, and 100% relative humidity. For adherent cells, the assay is terminated by the addition of cold TCA. Cells are fixed in situ by the gentle addition of 50 μL of cold 50% (w/v) TCA (final concentration, 10% TCA) and incubated for 60 min at 4 °C. The supernatant is discarded, and the plates are washed five times with tap water and air-dried. Sulforhodamine B (SRB) solution (100 μL) at 0.4% (w/v) in 1% acetic acid is added to each well, and plates are incubated for 10 min at room temperature. After staining, unbound dye is removed by washing five times with 1% acetic acid, and the plates are air-dried. Bound stain is subsequently solubilized with a 10 mM trizma base, and the absorbance is read on an automated plate reader at a wavelength of 515 nm. For suspension cells, the methodology is the same except that the assay is terminated by fixing settled cells at the bottom of the wells by gently adding 50 μL of 80% TCA (final concentration, 16% TCA). Compounds are screened at a dose of 10 µM, hits showing mean growth inhibition over 60 cell lines >50% are escalated for 5-dose screening assay. To construct a dose-response curve, about 60 cell lines of nine tumor subpanels were incubated with five concentrations (0.01–100 μM) for each compound. Three response parameters (GI50, TGI, and LC50) were calculated for each cell line.

[2] = target: T1, human ERα (Homo sapiens, UniProt P03372); assay: Yeast estrogen screen (YES) assay, antagonistic activity (β-galactosidase reporter); assay type: cell-based, yeast (Saccharomyces cerevisiae); conditions: compounds at 1 µM in presence of 0.5 nM/1 nM E2 (E2 set as 1); triplicates
T1 construct: host or cells: Saccharomyces cerevisiae
T1 sequence (P03372 1-595): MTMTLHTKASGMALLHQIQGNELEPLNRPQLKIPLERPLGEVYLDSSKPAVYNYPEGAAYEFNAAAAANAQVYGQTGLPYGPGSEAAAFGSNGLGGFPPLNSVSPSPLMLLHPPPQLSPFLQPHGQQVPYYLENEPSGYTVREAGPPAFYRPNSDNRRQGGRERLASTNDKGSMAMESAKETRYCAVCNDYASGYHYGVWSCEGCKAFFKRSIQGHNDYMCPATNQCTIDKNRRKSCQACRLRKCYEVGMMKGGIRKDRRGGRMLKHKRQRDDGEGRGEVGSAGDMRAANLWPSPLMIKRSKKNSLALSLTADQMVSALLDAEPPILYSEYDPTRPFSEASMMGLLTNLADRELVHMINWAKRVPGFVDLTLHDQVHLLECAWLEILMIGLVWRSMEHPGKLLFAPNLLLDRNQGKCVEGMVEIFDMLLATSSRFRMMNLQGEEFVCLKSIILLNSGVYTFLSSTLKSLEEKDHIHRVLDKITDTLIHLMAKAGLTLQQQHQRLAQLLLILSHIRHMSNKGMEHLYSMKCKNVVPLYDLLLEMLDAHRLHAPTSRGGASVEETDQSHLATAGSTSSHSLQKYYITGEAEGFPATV
Description: All synthesized compounds were tested for their relative activity in β-galactosidase in a yeast estrogen screen (YES) assay. Compounds were tested for their relative estrogenic/anti-estrogenic activities in comparison to positive and negative controls, respectively. YES assay is a gene reporter assay where the DNA sequence of human ERα is integrated into the yeast genome completed with an expression plasmid carrying estrogen response elements (ERE) in the promoter controlling the expression of the reporter gene lacZ (encoding the enzyme β-galactosidase). In the presence of estrogenic compounds, β-galactosidase is synthesized and secreted into the medium, where it converts the chromogenic substrate chlorophenol red-β-D-galactopyranoside (CRPG) from a yellow to a red product, whose absorbance is measured. […] Therefore, we decided to test the novel compounds in an organ-specific in vitro model using the human Ishikawa endometrial adenocarcinoma cell line.
The yeast estrogen receptor assay was supplied by Dr. J.P. Sumpter (Brunel University, Uxbridge, UK) and was used to determine the relative transactivation activity of the human ERα as formerly described. Briefly, Saccharomyces cerevisiae stably transfected with a human ERα and an estrogen-responsive element fused to the reporter gene lacZ encoding for β-galactosidase were treated with the test substances for about 48 h. The β-galactosidase enzymatic activity was measured in a colorimetric assay using a microplate photometer by hydrolysis of the substrate chlorophenol red β-D-galactopyranoside (Roche Diagnostics, Mannheim, Germany), which leads to the formation of chlorophenol red. This can be measured as an increased absorption at 540 nm. All compounds were diluted in DMSO. […] All compounds were tested in technical quadruplicates and biological triplicates. Statistical analysis was performed by analysis of variance (ANOVA) and Tukey’s post-hoc test with the significance level of p < 0.05.

Anti-Estrogenic Activity (relative β-galactosidase activity) [2]	Structure (SMILES)	Growth Inhibition on MCF-7 (%) [1]	inhibition at 10 µM [1] [%]	GI50 [1] [nM]
	COc1ccc(C(C)=C(c2ccc(O)cc2)c2ccc(Cl)cc2)cc1F [Compound 3, E/Z-4-[1-(4-Chlorophenyl)-2-(3-fluoro-4-methoxyphenyl)propenyl]-phenol]	No inhibition		
	COc1cc(C(C)=C(c2ccc(O)cc2)c2ccc(Cl)cc2)ccc1F [Compound 4, E/Z-4-[1-(4-Chlorophenyl)-2-(4-fluoro-3-methoxyphenyl)propenyl]-phenol]	No inhibition		
1.34 ± 0.15	CC(=C(c1ccc(Cl)cc1)c1ccc(OCCCN(C)C)cc1)c1ccccc1 [Compound 5, E/Z-(3-{4-[1-(4-Chloro-phenyl)-2-phenyl-propenyl]-phenoxy}-propyl)-dimethyl-amine]		55	
1.20 ± 0.19	CC(=C(c1ccc(Cl)cc1)c1ccc(OCCN2CCCC2)cc1)c1ccccc1 [Compound 6, E/Z-1-(2-{4-[1-(4-Chloro-phenyl)-2-phenyl-propenyl]-phenoxy}-ethyl)-pyrrolidine]		66.2	
1.35 ± 0.16	CC(=C(c1ccc(Cl)cc1)c1ccc(OCCN2CCCCC2)cc1)c1ccccc1 [Compound 7, E/Z-1-(2-{4-[1-(4-Chloro-phenyl)-2-phenyl-propenyl]-phenoxy}-ethyl)-piperidine]		56.4	
1.11 ± 0.26	CC(=C(c1ccc(Cl)cc1)c1ccc(OCCN2CCOCC2)cc1)c1ccccc1 [Compound 8, E/Z-4-(2-{4-[1-(4-Chloro-phenyl)-2-phenyl-propenyl]-phenoxy}-ethyl)-morpholine]		30.9	
1.99 ± 0.02	CC(=C(c1ccc(Cl)cc1)c1ccc(OCCN2CCCCCC2)cc1)c1ccccc1 [Compound 9, E/Z-1-(2-{4-[1-(4-Chloro-phenyl)-2-phenyl-propenyl]-phenoxy}-ethyl)-azepane]		24	
3.92 ± 0.58	COc1ccc(C(C)=C(c2ccc(Cl)cc2)c2ccc(OCCCN(C)C)cc2)cc1 [Compound 10, E/Z-(3-{4-[1-(4-Chloro-phenyl)-2-(4-methoxy-phenyl)-propenyl]-phenoxy}-propyl)-dimethyl-amine]		63.1	
1.55 ± 0.12	COc1ccc(C(C)=C(c2ccc(Cl)cc2)c2ccc(OCCN3CCCC3)cc2)cc1 [Compound 11, E/Z-1-(2-{4-[1-(4-Chloro-phenyl)-2-(4-methoxy-phenyl)-propenyl]-phenoxy}-ethyl)-pyrrolidine]		87	890
2.55 ± 0.41	COc1ccc(C(C)=C(c2ccc(Cl)cc2)c2ccc(OCCN3CCCCC3)cc2)cc1 [Compound 12, E/Z-1-(2-{4-[1-(4-Chloro-phenyl)-2-(4-methoxy-phenyl)-propenyl]-phenoxy}-ethyl)-piperidine]		79.7	600
	COc1ccc(C(C)=C(c2ccc(Cl)cc2)c2ccc(OCCN3CCOCC3)cc2)cc1 [Compound 13, E/Z-4-(2-{4-[1-(4-Chloro-phenyl)-2-(4-methoxy-phenyl)-propenyl]-phenoxy}-ethyl)-morpholine]		1.21	
1.53 ± 0.09	COc1ccc(C(C)=C(c2ccc(Cl)cc2)c2ccc(OCCN3CCCCCC3)cc2)cc1 [Compound 14, E/Z-1-(2-{4-[1-(4-Chloro-phenyl)-2-(4-methoxy-phenyl)-propenyl]-phenoxy}-ethyl)-azepane]		63.5	
	COc1ccc(C(C)=C(c2ccc(Cl)cc2)c2ccc(OCCCN(C)C)cc2)cc1F [Compound 15, E/Z-(3-{4-[1-(4-Chlorophenyl)-2-(3-fluoro-4-methoxyphenyl)-propenyl]-phenoxy}-propyl)-dimethyl-amine]		87	
	COc1ccc(C(C)=C(c2ccc(Cl)cc2)c2ccc(OCCN3CCCC3)cc2)cc1F [Compound 16, E/Z-1-(2-{4-[1-(4-Chlorophenyl)-2-(3-fluoro-4-methoxyphenyl)-propenyl]-phenoxy}-ethyl)-pyrrolidine]		90	2410
	COc1ccc(C(C)=C(c2ccc(Cl)cc2)c2ccc(OCCN3CCCCC3)cc2)cc1F [Compound 17, E/Z-1-(2-{4-[1-(4-Chlorophenyl)-2-(3-fluoro-4-methoxyphenyl)-propenyl]-phenoxy}-ethyl)-piperidine]		85	3340
	COc1ccc(C(C)=C(c2ccc(Cl)cc2)c2ccc(OCCN3CCOCC3)cc2)cc1F [Compound 18, E/Z-4-(2-{4-[1-(4-Chlorophenyl)-2-(3-fluoro-4-methoxyphenyl)-propenyl]-phenoxy}-ethyl)-morpholine]	No inhibition		
	COc1ccc(C(C)=C(c2ccc(Cl)cc2)c2ccc(OCCN3CCCCCC3)cc2)cc1F [Compound 19, E/Z-1-(2-{4-[1-(4-Chlorophenyl)-2-(3-fluoro-4-methoxyphenyl)-propenyl]-phenoxy}-ethyl)-azepane]		75.9	3590
	COc1ccc(C(C)=C(c2ccc(Cl)cc2)c2ccc(OCCN(C)C)cc2)cc1F [Compound 20, E/Z-(2-{4-[1-(4-Chlorophenyl)-2-(3-fluoro-4-methoxyphenyl)-propenyl]-phenoxy}-ethyl)-dimethyl-amine]		68.2	
	CCN(CC)CCOc1ccc(C(=C(C)c2ccc(OC)c(F)c2)c2ccc(Cl)cc2)cc1 [Compound 21, E/Z-(2-{4-[1-(4-Chlorophenyl)-2-(3-fluoro-4-methoxyphenyl)-propenyl]-phenoxy}-ethyl)-diethyl-amine]		29.7	
